{
  "source": "patent US8492362B1",
  "about": "“5-(E)-Bromovinyl uracil analogues and related pyrimidine nucleosides as anti-varicella zoster virus agents and methods of use” (priority 2011, dated 2013)",
  "key": {"[1]": {"conditions": "herpes zoster patients, 125 mg/day; cited from earlier work"}, "VZV-BAC-Luc [2]": {"test_system": "VZV-BAC-Luc", "conditions": "36 mg/kg/day subcutaneously from osmotic pumps; cited from earlier work"}, "[3]": {"test_system": "human foreskin fibroblasts (HFFs)", "assay": "Neutral red dye uptake cytotoxicity assay in HFFs", "format": "cell-based", "conditions": "35 nM", "procedure": "The neutral red (NR) cytotoxicity assay was performed as described previously (Rowe et al.) and is based on the method of (Babich et al., 2002).\nTo determine the toxicity of L-BHDU in culture, a neutral red dye uptake assay was performed. The amount of dye absorbed is directly proportional to cell number and membrane integrity (Repetto et al., 2008). Primary human foreskin fibroblasts (HFFs) were treated with either 35 nM staurosporine to induce apoptosis, DMSO diluent alone, or 0.1 to 200 μM L-BHDU, refreshed daily. The uptake of neutral red dye was evaluated at 0, 24, 48, and 72 h post treatment. Absorbance values from 6 replicates at each dose were averaged and plotted against treatment time (FIG. 1A). […] In the cultures treated with 200 μM L-BHDU or DMSO at an equivalent diluent concentration, cell viability declined between 48-72 h. […] This substantiates previous reports that L-BHDU caused no cell growth arrest up to 200 μM in HEL 299 cells (human embryonic lung) (Li et al., 2000)."}, "VZV-BAC-Luc [4]": {"test_system": "VZV-BAC-Luc", "format": "in vivo, Varicella-zoster virus", "conditions": "3 mg/mL in drinking water"}, "[5]": {"conditions": "3 mg/mL in drinking water"}, "VZV": {"test_system": "VZV", "conditions": "Oliver et al., 2008; cited from earlier work"}, "VZV-BAC-Luc [6]": {"test_system": "VZV-BAC-Luc", "format": "cell-based, Varicella-zoster virus", "conditions": "HFF at 48 hpi, read-out: EC50 in HFF, prodrug study"}, "VZV-BAC-Luc [7]": {"test_system": "VZV-BAC-Luc", "assay": "VZV-BAC-Luc dose-response in human skin organ culture (SOC)", "conditions": "read-out: EC50 in skin organ culture (SOC), skin explants, Day 6 (6 dpi)"}},
  "note": "Read-outs that look alike come from different tables or passages of the source.",
  "data": [
    {"smiles": "O=c1[nH]c(=O)n([C@H]2C[C@H](O)[C@@H](CO)O2)cc1/C=C/Br", "note": "[brivudin, (E)-5-(2-bromovinyl)-2′-deoxyuridine]", "values": [
      {"measurement": "Cmax (plasma)", "setting": "[1]", "value": 1700, "unit": "ng/mL"}
    ]},
    {"smiles": "O=C(O)CP(=O)(O)O", "note": "[phosphonoacetic acid (PAA), phosphonoacetic acid]", "values": [
      {"measurement": "effect on VZV growth in SCID-Hu model (Rowe et al.)", "setting": "VZV-BAC-Luc [2]", "value": "significantly reduced VZV growth"}
    ]},
    {"smiles": "CN[C@@H]1C[C@H]2O[C@@](C)([C@@H]1OC)n1c3ccccc3c3c4c(c5c6ccccc6n2c5c31)C(=O)NC4", "note": "[staurosporine, reference compound]", "values": [
      {"measurement": "cell viability, positive control for cell death", "setting": "[3]", "value": "no viable cells were detected"}
    ]},
    {"smiles": "CC(C)[C@H](N)C(=O)OCCOCn1cnc2c(=O)[nH]c(N)nc21", "note": "[valaciclovir, reference compound]", "values": [
      {"measurement": "antiviral effect in SCID-Hu mice", "setting": "VZV-BAC-Luc [4]", "value": "no antiviral effect"},
      {"measurement": "average VZV growth rate", "setting": "VZV-BAC-Luc [4]; n=5", "value": "0.62±0.05", "unit": "log10 photons/s/day"},
      {"measurement": "antiviral effect in SCID-Hu mice", "setting": "VZV-BAC-Luc [4]; listed as VACV", "value": "not effective"},
      {"measurement": "loss of body weight", "setting": "[5]", "value": "> 20", "unit": "%"},
      {"measurement": "effect on VZV replication in SCID-Hu mice", "setting": "VZV", "value": "little to no effect"}
    ]},
    {"smiles": "CC(C)C(N)C(=O)OCC1OCC(n2cc(C=CBr)c(=O)[nH]c2=O)O1", "note": "(stereo not shown) [valyl derivative]", "values": [
      {"measurement": "EC50", "setting": "VZV-BAC-Luc [6]", "value": 38, "unit": "nM"},
      {"measurement": "EC50", "setting": "VZV-BAC-Luc [7]", "value": 50, "unit": "nM"}
    ]}
  ]
}
